Laboratory results: patent US10273233B2, “Inhibitors of influenza viruses replication” (Vertex Pharmaceuticals Incorporated, priority 2015, dated 2019)
Counter-ions that a name gives are not always drawn. Like-named read-outs stand apart in the source and are kept apart here.

Columns and labels:
[1] = not given; remark: listed apart in the source
physchem [2] = conditions: thermodynamic from solid
physchem [3] = conditions: thermodynamic from solid; remark: listed apart in the source
influenza A = test: Influenza A mouse model, Compound (1) with or without oseltamivir; format: in vivo, Mice
Experimental: Referring to FIG. 32, the potential for a positive therapeutic interaction between Compound (1) and oseltamivir against influenza A was explored in the mouse model. Mice were challenged with influenza A and dosed with vehicle (10 mL/kg 0.5% MC) or Compound (1) at 1, 3, 10, or 30 mg/kg BID alone, or in combination with 10 mg/kg BID oseltamivir. Therapy was started 48 hours post influenza A infection and continued for 10 days. All of the vehicle-treated controls succumbed to disease by study day 8 (Table 21).

CC(C)(C)[C@@H](CC(=O)O)Nc1nc(-c2c[nH]c3ncc(F)cc23)ncc1F [FF Lot 7]
Final Form (SGF (pH --1.5), 5 min): H3
concentration, two-stage in vitro dissolution (SGF (pH --1.5), 5 min): 2.053
Final Form (SGF (pH --1.5), 15 min): H3
concentration, two-stage in vitro dissolution (SGF (pH --1.5), 15 min): 1.278
Final Form (SGF (pH --1.5), 30 min): H3
concentration, two-stage in vitro dissolution (SGF (pH --1.5), 30 min): 2.031
Final Form (SGF (pH --1.5), 60 min): H3
concentration, two-stage in vitro dissolution (SGF (pH --1.5), 60 min): 2.40
Final Form (SIF (no pH Adjustment), 75 min): H3
concentration, two-stage in vitro dissolution (SIF (no pH Adjustment), 75 min): 0.163
Final Form (SIF (no pH Adjustment), 90 min): H3
concentration, two-stage in vitro dissolution (SIF (no pH Adjustment), 90 min): 0.148
Final Form (SIF (pH --6.4), 105 min): H3
concentration, two-stage in vitro dissolution (SIF (pH --6.4), 105 min): 1.588
Final Form (SIF (pH --6.4), 120 min): H3
concentration, two-stage in vitro dissolution (SIF (pH --6.4), 120 min): 1.534
Final Form (SIF (pH --6.4), 150 min): H3
concentration, two-stage in vitro dissolution (SIF (pH --6.4), 150 min): 1.058
Final Form (SIF (pH --6.4), 180 min): H3
concentration, two-stage in vitro dissolution (SIF (pH --6.4), 180 min): 0.971
Final Form (SIF (pH --6.4), 240 min): H3
concentration, two-stage in vitro dissolution (SIF (pH --6.4), 240 min): 1.497

CC(C)(C)[C@@H](CC(=O)O)Nc1nc(-c2c[nH]c3ncc(F)cc23)ncc1F [H2SO4 Salt]
Final Form (SGF (pH --1.5), 5 min): H2SO4
concentration, two-stage in vitro dissolution (SGF (pH --1.5), 5 min): 0.407
Final Form (SGF (pH --1.5), 15 min): H2SO4
concentration, two-stage in vitro dissolution (SGF (pH --1.5), 15 min): 0.407
Final Form (SGF (pH --1.5), 30 min): H2SO4
concentration, two-stage in vitro dissolution (SGF (pH --1.5), 30 min): 0.417
Final Form (SGF (pH --1.5), 60 min): H2SO4
concentration, two-stage in vitro dissolution (SGF (pH --1.5), 60 min): 0.399
Final Form (SIF (no pH Adjustment), 75 min): H2
concentration, two-stage in vitro dissolution (SIF (no pH Adjustment), 75 min): 0.242
Final Form (SIF (no pH Adjustment), 90 min): H2
concentration, two-stage in vitro dissolution (SIF (no pH Adjustment), 90 min): 0.236
Final Form (SIF (pH --6.4), 105 min): H2
concentration, two-stage in vitro dissolution (SIF (pH --6.4), 105 min): 1.373
Final Form (SIF (pH --6.4), 120 min): H2
concentration, two-stage in vitro dissolution (SIF (pH --6.4), 120 min): 1.284
Final Form (SIF (pH --6.4), 150 min): H2
concentration, two-stage in vitro dissolution (SIF (pH --6.4), 150 min): 0.396
Final Form (SIF (pH --6.4), 180 min): H2
concentration, two-stage in vitro dissolution (SIF (pH --6.4), 180 min): 0.652
Final Form (SIF (pH --6.4), 240 min): H2
concentration, two-stage in vitro dissolution (SIF (pH --6.4), 240 min): 0.789

CC(C)(C)[C@@H](CC(=O)O)Nc1nc(-c2c[nH]c3ncc(F)cc23)ncc1F [HCl Salt]
Final Form (SGF (pH --1.5), 5 min): Amorphous
concentration, two-stage in vitro dissolution (SGF (pH --1.5), 5 min): 14.664
Final Form (SGF (pH --1.5), 15 min): Amorphous
concentration, two-stage in vitro dissolution (SGF (pH --1.5), 15 min): 16.565
Final Form (SGF (pH --1.5), 30 min): Amorphous
concentration, two-stage in vitro dissolution (SGF (pH --1.5), 30 min): 14.808
Final Form (SGF (pH --1.5), 60 min): Amorphous
concentration, two-stage in vitro dissolution (SGF (pH --1.5), 60 min): 15.135
Final Form (SIF (no pH Adjustment), 75 min): H2
concentration, two-stage in vitro dissolution (SIF (no pH Adjustment), 75 min): 0.747
Final Form (SIF (no pH Adjustment), 90 min): H2
concentration, two-stage in vitro dissolution (SIF (no pH Adjustment), 90 min): 0.964
Final Form (SIF (pH --6.4), 105 min): H2
concentration, two-stage in vitro dissolution (SIF (pH --6.4), 105 min): 0.474
Final Form (SIF (pH --6.4), 120 min): H2
concentration, two-stage in vitro dissolution (SIF (pH --6.4), 120 min): 0.477
Final Form (SIF (pH --6.4), 150 min): H2
concentration, two-stage in vitro dissolution (SIF (pH --6.4), 150 min): 0.749
Final Form (SIF (pH --6.4), 180 min): H2
concentration, two-stage in vitro dissolution (SIF (pH --6.4), 180 min): 0.340
Final Form (SIF (pH --6.4), 240 min): H2
concentration, two-stage in vitro dissolution (SIF (pH --6.4), 240 min): 0.395

CC(C)(C)[C@@H](CC(=O)O)Nc1nc(-c2c[nH]c3ncc(F)cc23)ncc1F [Hydrate 1 of Compound (1)]
USP Definition ([1]; pH 0.84): Slightly Soluble
USP Definition ([1]; pH 1.59): Slightly Soluble
Final Form ([1]; pH 2.84): Hydrate 3
USP Definition ([1]; pH 2.84): Practically Insoluble
Final Form ([1]; pH 4.22): Hydrate 3
USP Definition ([1]; pH 4.22): Practically Insoluble
Final Form ([1]; pH 5.17): Hydrate 3
USP Definition ([1]; pH 5.17): Practically Insoluble
Final Form ([1]; pH 5.96): Hydrate 3
USP Definition ([1]; pH 5.96): Practically Insoluble
Final Form ([1]; pH 6.38): Hydrate 3
USP Definition ([1]; pH 6.38): Very Slightly Soluble
Final Form ([1]; pH 6.71): Hydrate 3
USP Definition ([1]; pH 6.71): Very Slightly Soluble
Final Form ([1]; pH 7.07): Hydrate 3
USP Definition ([1]; pH 7.07): Very Slightly Soluble
Final Form ([1]; pH 7.73): Hydrate 3
USP Definition ([1]; pH 7.73): Slightly Soluble
Final Form ([1]; pH 8.13): Hydrate 3
USP Definition ([1]; pH 8.13): Slightly Soluble
Final Form ([1]; pH 8.4): Hydrate 3
USP Definition ([1]; pH 8.4): Slightly Soluble
solubility at 2 weeks (physchem [2]; pH 0.84, saline or isotonic): 2150 µg/mL
solubility at 2 weeks (physchem [2]; pH 1.59, saline or isotonic): 1150 µg/mL
solubility at 2 weeks (physchem [2]; pH 2.84, saline or isotonic): 57 µg/mL
solubility at 2 weeks (physchem [2]; pH 4.22, saline or isotonic): 4 µg/mL
solubility at 2 weeks (physchem [2]; pH 5.17, saline or isotonic): 21 µg/mL
solubility at 2 weeks (physchem [2]; pH 5.96, saline or isotonic): 78 µg/mL
solubility at 2 weeks (physchem [2]; pH 6.38, saline or isotonic): 216 µg/mL
solubility at 2 weeks (physchem [2]; pH 6.71, saline or isotonic): 420 µg/mL
solubility at 2 weeks (physchem [2]; pH 7.07, saline or isotonic): 335 µg/mL
solubility at 2 weeks (physchem [2]; pH 7.73, saline or isotonic): 2240 µg/mL
solubility at 2 weeks (physchem [2]; pH 8.13, saline or isotonic): 4830 µg/mL
solubility at 2 weeks (physchem [2]; pH 8.4, saline or isotonic): 4360 µg/mL
solubility at 5 days (physchem [3]; pH 1.55, fassgf or other biorelevant): 2660 µg/mL
solubility at 5 days (physchem [3]; pH 3.56, aqueous with cosolvent or surfactant or cyclodextrin): 285 µg/mL
solubility at 5 days (physchem [3]; pH 3.96, aqueous with cosolvent or surfactant or cyclodextrin): 135 µg/mL
solubility at 5 days (physchem [3]; pH 4.15, aqueous with cosolvent or surfactant or cyclodextrin): 1150 µg/mL
solubility at 5 days (physchem [3]; pH 4.17, aqueous with cosolvent or surfactant or cyclodextrin): 1640 µg/mL
solubility at 5 days (physchem [3]; pH 4.18, saline or isotonic): 108 µg/mL
solubility at 5 days (physchem [3]; pH 4.79, aqueous with cosolvent or surfactant or cyclodextrin): 89 µg/mL
solubility at 5 days (physchem [3]; pH 4.84, saline or isotonic): 94 µg/mL
solubility at 5 days (physchem [3]; pH 4.93, aqueous with cosolvent or surfactant or cyclodextrin): 108 µg/mL
solubility at 5 days (physchem [3]; pH 5.03, water): 98 µg/mL
solubility at 5 days (physchem [3]; pH 5.04, aqueous with cosolvent or surfactant or cyclodextrin): 512 µg/mL
solubility at 5 days (physchem [3]; pH 5.08, aqueous with cosolvent or surfactant or cyclodextrin): 606 µg/mL
solubility at 5 days (physchem [3]; pH 5.11, fessif): 60 µg/mL
solubility at 5 days (physchem [3]; pH 5.13, aqueous with cosolvent or surfactant or cyclodextrin): 354 µg/mL
solubility at 5 days (physchem [3]; pH 5.22, aqueous with cosolvent or surfactant or cyclodextrin): 1620 µg/mL
solubility at 5 days (physchem [3]; pH 5.39, aqueous with cosolvent or surfactant or cyclodextrin): 110 µg/mL
solubility at 5 days (physchem [3]; pH 5.53, aqueous with cosolvent or surfactant or cyclodextrin): 223 µg/mL
solubility at 5 days (physchem [3]; pH 5.58, saline or isotonic): 228 µg/mL
solubility at 5 days (physchem [3]; pH 5.59, aqueous with cosolvent or surfactant or cyclodextrin): 152 µg/mL
solubility at 5 days (physchem [3]; pH 5.74, aqueous with cosolvent or surfactant or cyclodextrin): 289 µg/mL
solubility at 5 days (physchem [3]; pH 5.78, aqueous with cosolvent or surfactant or cyclodextrin): 1020 µg/mL
solubility at 5 days (physchem [3]; pH 5.83, aqueous with cosolvent or surfactant or cyclodextrin): 1170 µg/mL
solubility at 5 days (physchem [3]; pH 5.97, aqueous with cosolvent or surfactant or cyclodextrin): 272 µg/mL
solubility at 5 days (physchem [3]; pH 6.04, aqueous with cosolvent or surfactant or cyclodextrin): 467 µg/mL
solubility at 5 days (physchem [3]; pH 6.17, aqueous with cosolvent or surfactant or cyclodextrin): 120 µg/mL
solubility at 5 days (physchem [3]; pH 6.18, aqueous with cosolvent or surfactant or cyclodextrin): 170 µg/mL
solubility at 5 days (physchem [3]; pH 6.19, aqueous with cosolvent or surfactant or cyclodextrin): 200 µg/mL
solubility at 5 days (physchem [3]; pH 6.47, fassif): 80 µg/mL
solubility at 5 days (physchem [3]; pH 6.61, aqueous buffer): 945 µg/mL
solubility at 5 days (physchem [3]; pH 6.63, aqueous buffer): 979 µg/mL
solubility at 5 days (physchem [3]; pH 6.7, aqueous with cosolvent or surfactant or cyclodextrin): 360 µg/mL
solubility at 5 days (physchem [3]; pH 7.42, aqueous buffer): 7620 µg/mL
solubility at 5 days (physchem [3]; pH 7.46, aqueous buffer): 6620 µg/mL

CCOC(=O)C1=C[C@@H](OC(CC)CC)[C@H](NC(C)=O)[C@@H](N)C1 [Oseltamivir, oseltamivir, reference compound]
Percent Survival (influenza A; Oseltamivir 10 mg/kg BID alone, started +48 hours after infection, 10 days): 0%
protection from mortality (influenza A; administered alone: Compound (1) 1 mg/kg BID, oseltamivir 10 mg/kg): failed to protect mice from influenza infection
